Consider 11 molecules from PubChem BioAssay AID652169 (The Scripps Research Institute Molecular Screening Center, 2013).

Calls of active or inactive are those of the source. How the calls were made is not given here. A value given as a limit tells only on which side of the number the result lay.

The subject of this assay is MTT cytotoxicity, absorbance 620 nm. Nature of the assay: cytotoxicity by MTT viability readout, late-stage follow-up, cytotoxicity control for NOD2-RIPK2 interaction inhibitor project, cell-based, absorbance (AID 652169).
A word on the IC50: it is the concentration that gives 50% inhibition. In the case of `O=S(=O)(c1ccccc1)N1CCCCCC1`, the IC50 is > 10 µM (inactive).

Take `Cc1ncc([N+](=O)[O-])n1Cc1ccc(Cl)c(Cl)c1`: the IC50 was > 10 µM (inactive).

As for `Cc1cc(S(=O)(=O)N2CCCCCC2)ccc1F`, the IC50 is > 10 µM (inactive).

For the molecule `COc1ccc(C(C[N+](=O)[O-])n2nc(C)cc2C)cc1` (stereo unspecified), the IC50 is > 10 µM (inactive).

On to `Cc1ccc(S(=O)(=O)N2CCCCCC2)cc1[N+](=O)[O-]`, for which the IC50 was > 10 µM (inactive).

As to `O=S(=O)(c1ccc(F)cc1)N1CCCCCC1`, the IC50 was > 10 µM (inactive).

Take `Cc1ccc(C(C[N+](=O)[O-])n2nc(C)cc2C)cc1` (stereo unspecified): the IC50 was > 10 µM (inactive).

For the molecule `Cc1nc([N+](=O)[O-])c(Br)n1Cc1ccc(Cl)c(Cl)c1`, the IC50 was > 10 µM (inactive).

Consider `Cc1nc([N+](=O)[O-])c(Br)n1Cc1ccccc1`, for which the IC50 is > 10 µM (inactive).

Take `O=[N+]([O-])c1cc(S(=O)(=O)N2CCCCCC2)ccc1F`: the IC50 was > 10 µM (inactive).

Regarding `O=[N+]([O-])c1cccc(S(=O)(=O)N2CCCCCC2)c1`, the IC50 is > 10 µM (inactive).
